The text below walks through data of publication PMC7714403 (JCI Insight, 2020).

What all share (assay): KiNativ, MOLM13 live cells
Holding throughout (format): cell-based

One experiment addresses CDK9 (Homo sapiens, UniProt P50750). The note with it: MOLM-13; 100 nM, 2 hours; ATP Loop; read-out: Inhibition vs DMSO. As to the method:
(§1) Samples were analyzed by KiNativ in situ kinase profiling by ActivX Biosciences.

Another experiment concerns the target CaMK2d (Homo sapiens, UniProt Q13557). The note with it: MOLM-13; 100 nM, 2 hours; Lys1; read-out: Inhibition vs DMSO. As for the experimental part: as §1
A further experiment has as its target T1, GCK (Homo sapiens, UniProt Q12851).
T1 sequence (Q12851 1-820): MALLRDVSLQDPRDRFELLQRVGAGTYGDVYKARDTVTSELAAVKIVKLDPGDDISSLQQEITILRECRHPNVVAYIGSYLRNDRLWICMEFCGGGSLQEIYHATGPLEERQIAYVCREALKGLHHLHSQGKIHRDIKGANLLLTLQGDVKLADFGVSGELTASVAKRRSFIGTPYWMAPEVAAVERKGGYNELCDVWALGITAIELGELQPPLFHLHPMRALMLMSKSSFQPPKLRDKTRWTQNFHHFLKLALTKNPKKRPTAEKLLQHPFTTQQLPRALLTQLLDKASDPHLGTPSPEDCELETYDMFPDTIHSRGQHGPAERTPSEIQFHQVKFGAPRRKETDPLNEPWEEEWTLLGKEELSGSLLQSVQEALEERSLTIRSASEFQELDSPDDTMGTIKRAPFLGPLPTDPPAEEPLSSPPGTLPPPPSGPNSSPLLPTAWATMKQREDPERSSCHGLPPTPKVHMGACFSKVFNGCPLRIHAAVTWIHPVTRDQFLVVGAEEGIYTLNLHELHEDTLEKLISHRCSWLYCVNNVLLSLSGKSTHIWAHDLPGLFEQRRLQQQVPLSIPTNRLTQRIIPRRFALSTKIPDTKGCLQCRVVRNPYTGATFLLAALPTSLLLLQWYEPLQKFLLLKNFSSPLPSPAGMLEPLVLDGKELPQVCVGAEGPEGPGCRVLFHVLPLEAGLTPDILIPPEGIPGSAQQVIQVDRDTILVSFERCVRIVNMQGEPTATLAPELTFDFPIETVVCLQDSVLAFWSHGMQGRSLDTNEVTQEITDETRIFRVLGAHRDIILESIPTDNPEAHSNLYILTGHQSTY
The note with it: MOLM-13; 100 nM, 2 hours; Lys2; read-out: Inhibition vs DMSO. As for the experimental part:
as §1

Another experiment has as its target IRE1 (Homo sapiens, UniProt O75460). Particulars: MOLM-13; 100 nM, 2 hours; Lys2; read-out: Inhibition vs DMSO. As to the method:
as §1

A further experiment has as its target LKB1 (Homo sapiens, UniProt Q15831). The note with it: MOLM-13; 100 nM, 2 hours; Lys2; read-out: Inhibition vs DMSO. As to the method:
as §1

In a further experiment the target is NEK4 (Homo sapiens, UniProt P51957). The note with it: MOLM-13; 100 nM, 2 hours; Lys2; read-out: Inhibition vs DMSO. As for the experimental part: as §1
For the next experiment, the target named is PFTAIRE1 (Homo sapiens, UniProt O94921). Particulars: 100 nM, 2 hours; Lys1. As for the experimental part: as §1
The target of a further experiment is T2, PIP4K2C (Homo sapiens, UniProt Q8TBX8).
T2 sequence (Q8TBX8 1-421): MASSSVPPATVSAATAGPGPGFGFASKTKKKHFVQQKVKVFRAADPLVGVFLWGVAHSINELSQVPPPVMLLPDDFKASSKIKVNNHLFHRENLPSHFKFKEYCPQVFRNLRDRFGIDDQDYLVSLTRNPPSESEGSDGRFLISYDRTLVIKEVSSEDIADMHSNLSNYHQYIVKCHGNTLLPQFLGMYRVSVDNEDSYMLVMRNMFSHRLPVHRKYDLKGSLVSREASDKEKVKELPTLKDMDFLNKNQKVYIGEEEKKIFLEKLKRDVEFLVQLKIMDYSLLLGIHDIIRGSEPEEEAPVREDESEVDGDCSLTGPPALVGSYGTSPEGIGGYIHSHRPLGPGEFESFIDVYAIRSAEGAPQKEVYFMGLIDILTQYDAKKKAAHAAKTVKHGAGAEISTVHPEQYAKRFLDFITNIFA
The note with it: MOLM-13, 2 h, 100 nM, ATP, read-out: Inhibition vs DMSO. As for the experimental part: as §1

A further experiment deals with PKR (Homo sapiens, UniProt P19525). The note with it: 100 nM, 2 hours. As to the method:
as §1

The target of a further experiment is T3, ZAP70 (Homo sapiens, UniProt P43403).
T3 sequence (P43403 1-619): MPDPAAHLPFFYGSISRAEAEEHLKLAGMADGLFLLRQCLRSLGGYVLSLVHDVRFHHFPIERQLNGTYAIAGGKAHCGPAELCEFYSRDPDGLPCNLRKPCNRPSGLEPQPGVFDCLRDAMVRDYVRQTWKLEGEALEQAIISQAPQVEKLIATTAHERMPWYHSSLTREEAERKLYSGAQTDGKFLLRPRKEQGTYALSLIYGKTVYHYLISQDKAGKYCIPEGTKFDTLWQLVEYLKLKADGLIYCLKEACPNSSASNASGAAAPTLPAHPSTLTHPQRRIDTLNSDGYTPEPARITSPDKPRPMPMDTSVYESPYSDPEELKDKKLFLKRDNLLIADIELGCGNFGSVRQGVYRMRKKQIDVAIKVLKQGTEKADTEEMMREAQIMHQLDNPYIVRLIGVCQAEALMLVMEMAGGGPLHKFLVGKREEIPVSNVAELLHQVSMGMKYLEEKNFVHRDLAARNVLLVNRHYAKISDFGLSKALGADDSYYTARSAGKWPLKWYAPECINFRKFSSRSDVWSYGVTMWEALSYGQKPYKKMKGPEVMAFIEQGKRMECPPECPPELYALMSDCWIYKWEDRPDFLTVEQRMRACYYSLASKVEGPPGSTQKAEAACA
Particulars: MOLM-13; 100 nM, 2 hours; Activation Loop; read-out: Inhibition vs DMSO. As to the method:
as §1

A further experiment addresses p70S6Kb (Homo sapiens, UniProt Q9UBS0). Particulars: MOLM-13, 2 h, 100 nM. As to the method:
as §1

Like-named read-outs stand apart in the source and are kept apart here.

Chain of PKR (P19525 whole entry): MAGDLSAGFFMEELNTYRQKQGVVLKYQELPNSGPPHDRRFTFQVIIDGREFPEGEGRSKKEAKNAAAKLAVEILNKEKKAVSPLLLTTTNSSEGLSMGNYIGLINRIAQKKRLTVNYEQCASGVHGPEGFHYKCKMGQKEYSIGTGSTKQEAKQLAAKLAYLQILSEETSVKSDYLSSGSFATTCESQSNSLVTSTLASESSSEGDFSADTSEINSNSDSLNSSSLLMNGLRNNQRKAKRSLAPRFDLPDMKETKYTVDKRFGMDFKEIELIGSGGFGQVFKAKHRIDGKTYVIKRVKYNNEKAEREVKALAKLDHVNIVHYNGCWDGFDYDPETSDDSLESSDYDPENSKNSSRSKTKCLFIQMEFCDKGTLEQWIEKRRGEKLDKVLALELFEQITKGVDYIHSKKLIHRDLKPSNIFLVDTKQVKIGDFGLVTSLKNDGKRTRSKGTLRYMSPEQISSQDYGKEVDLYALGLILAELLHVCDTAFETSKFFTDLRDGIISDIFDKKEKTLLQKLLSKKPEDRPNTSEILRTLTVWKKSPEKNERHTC
Chain of p70S6Kb (Q9UBS0 whole entry): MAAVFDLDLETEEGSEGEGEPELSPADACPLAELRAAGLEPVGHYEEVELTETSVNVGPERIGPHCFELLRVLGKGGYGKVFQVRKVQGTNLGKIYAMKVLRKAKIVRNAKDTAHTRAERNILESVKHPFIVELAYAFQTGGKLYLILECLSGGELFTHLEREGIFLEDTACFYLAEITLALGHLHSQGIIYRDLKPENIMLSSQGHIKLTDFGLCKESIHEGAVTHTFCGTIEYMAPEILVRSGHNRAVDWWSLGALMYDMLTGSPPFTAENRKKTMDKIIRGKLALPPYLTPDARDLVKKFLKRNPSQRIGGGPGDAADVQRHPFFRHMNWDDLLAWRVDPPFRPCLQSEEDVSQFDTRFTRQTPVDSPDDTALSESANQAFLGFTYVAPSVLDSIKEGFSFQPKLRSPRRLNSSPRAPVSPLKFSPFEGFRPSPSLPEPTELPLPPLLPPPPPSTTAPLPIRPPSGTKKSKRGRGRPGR
Chain of PFTAIRE1 (O94921 whole entry): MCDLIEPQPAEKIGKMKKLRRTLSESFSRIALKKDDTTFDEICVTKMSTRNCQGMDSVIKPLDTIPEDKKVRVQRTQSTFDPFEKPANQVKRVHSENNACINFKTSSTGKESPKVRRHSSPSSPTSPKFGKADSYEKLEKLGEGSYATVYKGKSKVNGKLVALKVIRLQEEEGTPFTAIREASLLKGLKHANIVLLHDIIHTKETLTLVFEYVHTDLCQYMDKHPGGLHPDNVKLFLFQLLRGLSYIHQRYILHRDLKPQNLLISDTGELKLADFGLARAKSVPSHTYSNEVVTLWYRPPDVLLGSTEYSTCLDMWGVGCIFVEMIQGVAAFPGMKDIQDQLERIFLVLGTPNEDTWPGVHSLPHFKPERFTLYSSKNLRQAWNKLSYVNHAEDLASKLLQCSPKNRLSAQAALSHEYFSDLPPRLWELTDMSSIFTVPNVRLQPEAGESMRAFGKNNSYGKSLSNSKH
Chain of PFTAIRE1 (Q8ND76 whole entry partner): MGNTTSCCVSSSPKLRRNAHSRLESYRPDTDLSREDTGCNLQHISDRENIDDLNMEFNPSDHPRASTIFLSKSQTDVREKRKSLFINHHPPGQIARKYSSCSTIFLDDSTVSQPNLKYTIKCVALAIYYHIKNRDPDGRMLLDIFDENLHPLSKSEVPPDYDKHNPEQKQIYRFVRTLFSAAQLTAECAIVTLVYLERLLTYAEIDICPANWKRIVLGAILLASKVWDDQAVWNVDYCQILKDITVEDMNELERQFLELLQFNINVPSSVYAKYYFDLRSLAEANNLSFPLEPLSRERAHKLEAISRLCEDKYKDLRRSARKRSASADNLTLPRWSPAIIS
Chain of CDK9 (P50750 whole entry): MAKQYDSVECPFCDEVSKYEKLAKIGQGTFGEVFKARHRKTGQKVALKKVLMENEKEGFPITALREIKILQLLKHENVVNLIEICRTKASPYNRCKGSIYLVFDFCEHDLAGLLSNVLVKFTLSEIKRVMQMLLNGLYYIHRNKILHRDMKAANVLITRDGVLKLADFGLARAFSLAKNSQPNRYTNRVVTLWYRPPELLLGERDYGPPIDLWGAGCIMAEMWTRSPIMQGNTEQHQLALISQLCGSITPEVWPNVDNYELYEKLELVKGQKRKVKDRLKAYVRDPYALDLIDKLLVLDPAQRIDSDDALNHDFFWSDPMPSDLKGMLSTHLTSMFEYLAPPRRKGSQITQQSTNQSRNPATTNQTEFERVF
Chain of CDK9 (O60563 whole entry partner): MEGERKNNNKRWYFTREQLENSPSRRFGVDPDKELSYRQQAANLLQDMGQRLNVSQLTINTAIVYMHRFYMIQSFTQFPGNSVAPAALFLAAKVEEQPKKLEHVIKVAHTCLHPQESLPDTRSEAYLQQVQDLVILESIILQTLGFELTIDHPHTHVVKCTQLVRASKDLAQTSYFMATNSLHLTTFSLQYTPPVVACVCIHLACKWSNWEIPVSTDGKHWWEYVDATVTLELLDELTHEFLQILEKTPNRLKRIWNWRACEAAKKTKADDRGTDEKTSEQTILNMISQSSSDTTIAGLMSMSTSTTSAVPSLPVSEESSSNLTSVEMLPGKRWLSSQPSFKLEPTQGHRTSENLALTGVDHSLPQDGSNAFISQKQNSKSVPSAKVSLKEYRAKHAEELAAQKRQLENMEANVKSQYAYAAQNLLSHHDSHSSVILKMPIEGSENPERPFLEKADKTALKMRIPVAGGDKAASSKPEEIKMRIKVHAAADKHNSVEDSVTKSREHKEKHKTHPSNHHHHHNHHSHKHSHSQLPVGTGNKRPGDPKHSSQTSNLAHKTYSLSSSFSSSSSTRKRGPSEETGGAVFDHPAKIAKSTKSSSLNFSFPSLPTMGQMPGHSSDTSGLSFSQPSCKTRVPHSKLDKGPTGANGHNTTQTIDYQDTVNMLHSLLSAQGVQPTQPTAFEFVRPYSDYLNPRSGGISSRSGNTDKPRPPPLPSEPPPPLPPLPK
Chain of LKB1 (Q15831 1-430 limits assumed): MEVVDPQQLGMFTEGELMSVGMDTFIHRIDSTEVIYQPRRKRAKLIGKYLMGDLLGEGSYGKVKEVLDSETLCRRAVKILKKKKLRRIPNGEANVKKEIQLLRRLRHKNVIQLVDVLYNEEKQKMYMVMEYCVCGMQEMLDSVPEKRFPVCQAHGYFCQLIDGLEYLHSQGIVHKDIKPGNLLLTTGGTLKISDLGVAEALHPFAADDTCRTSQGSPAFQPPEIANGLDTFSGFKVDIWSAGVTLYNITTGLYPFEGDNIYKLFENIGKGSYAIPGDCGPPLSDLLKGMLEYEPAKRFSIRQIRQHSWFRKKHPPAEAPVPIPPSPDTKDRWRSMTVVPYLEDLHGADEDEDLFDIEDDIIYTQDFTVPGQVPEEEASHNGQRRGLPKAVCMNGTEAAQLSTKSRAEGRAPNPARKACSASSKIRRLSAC
Chain of LKB1 (Q7RTN6 whole entry partner): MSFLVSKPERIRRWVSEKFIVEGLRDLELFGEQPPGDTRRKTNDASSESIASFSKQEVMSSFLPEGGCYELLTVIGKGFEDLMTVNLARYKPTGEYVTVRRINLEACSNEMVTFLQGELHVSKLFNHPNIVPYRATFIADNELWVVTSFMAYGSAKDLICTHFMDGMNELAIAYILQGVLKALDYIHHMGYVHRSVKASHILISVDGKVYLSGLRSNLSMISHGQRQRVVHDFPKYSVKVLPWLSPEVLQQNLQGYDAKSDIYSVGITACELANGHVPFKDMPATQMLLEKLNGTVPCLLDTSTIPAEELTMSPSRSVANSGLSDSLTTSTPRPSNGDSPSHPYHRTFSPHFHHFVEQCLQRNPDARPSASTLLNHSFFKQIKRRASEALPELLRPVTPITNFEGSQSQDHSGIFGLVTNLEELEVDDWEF
Chain of LKB1 (Q9Y376 whole entry partner): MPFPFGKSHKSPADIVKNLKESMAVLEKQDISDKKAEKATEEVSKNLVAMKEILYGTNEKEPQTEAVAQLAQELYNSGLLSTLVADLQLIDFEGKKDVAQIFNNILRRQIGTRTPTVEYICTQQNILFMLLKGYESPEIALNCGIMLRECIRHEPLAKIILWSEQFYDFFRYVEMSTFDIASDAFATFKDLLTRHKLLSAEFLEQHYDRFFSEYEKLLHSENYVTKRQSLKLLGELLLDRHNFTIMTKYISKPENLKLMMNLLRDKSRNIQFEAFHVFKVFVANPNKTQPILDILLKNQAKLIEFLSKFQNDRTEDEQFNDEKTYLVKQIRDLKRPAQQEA
Chain of NEK4 (P51957 whole entry): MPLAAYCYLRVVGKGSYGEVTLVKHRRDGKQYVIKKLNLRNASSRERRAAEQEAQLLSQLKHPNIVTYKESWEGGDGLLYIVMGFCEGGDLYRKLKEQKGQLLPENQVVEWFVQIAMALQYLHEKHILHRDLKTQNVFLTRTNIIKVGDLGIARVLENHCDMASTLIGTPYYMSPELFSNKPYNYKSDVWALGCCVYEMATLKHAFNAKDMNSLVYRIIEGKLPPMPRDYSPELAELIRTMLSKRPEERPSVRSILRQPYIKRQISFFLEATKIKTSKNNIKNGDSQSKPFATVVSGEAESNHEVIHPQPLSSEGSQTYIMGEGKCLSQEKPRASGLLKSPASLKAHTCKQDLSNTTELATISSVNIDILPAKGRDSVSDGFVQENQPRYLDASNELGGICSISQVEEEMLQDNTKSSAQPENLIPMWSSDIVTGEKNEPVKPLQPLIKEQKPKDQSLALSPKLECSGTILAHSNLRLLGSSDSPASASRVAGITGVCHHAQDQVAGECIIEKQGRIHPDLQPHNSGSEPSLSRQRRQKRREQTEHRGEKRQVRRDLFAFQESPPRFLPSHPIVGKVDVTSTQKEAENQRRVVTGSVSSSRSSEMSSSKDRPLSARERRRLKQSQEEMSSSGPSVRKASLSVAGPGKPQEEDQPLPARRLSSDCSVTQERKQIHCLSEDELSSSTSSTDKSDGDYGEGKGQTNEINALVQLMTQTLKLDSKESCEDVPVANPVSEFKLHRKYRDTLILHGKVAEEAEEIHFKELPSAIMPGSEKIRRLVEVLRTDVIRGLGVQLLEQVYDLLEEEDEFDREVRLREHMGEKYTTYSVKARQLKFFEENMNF

Take `CN1CCN(Cc2ccc(Nc3ncc(Cl)c(Nc4ccccc4S(=O)(=O)N(C)C)n3)cc2)CC1` [TP-0903]: the inhibition at 0.1 µM was -34.4% at CDK9; 7.5% at CaMK2d; 29.8% on GCK; -29.3% at IRE1; 18.2% on LKB1; -23.8% at NEK4. Moreover, the inhibition at 0.1 µM on PIP4K2C (TLVIKEVSSEDIADMHSNLSNYHQYIVK) was -26%; on PIP4K2C (VKELPTLKDMDFLNK) it was -26.5%; at ZAP70 it was 26.3%; on p70S6Kb (Lys1, read-out: Inhibition vs DMSO), 10.1%; at p70S6Kb (Lys2, read-out: Inhibition vs DMSO) it was -12.6%. In addition, the “Inhibition vs DMSO” value on PFTAIRE1 is 29.5%; at PKR (Activation Loop) it was -7.5%; on PKR (Lys1), -21.9%; at PKR (Lys2), -21.6%.
